In the supplement of paper PMC13380429:

What was measured:
Conditions in all cases: 72 h
[1] = system: Caco-2; test: cell viability relative to DMSO; higher = less toxic
[2] = system: Calu-3; test: as above
[3] = system: HepG2; test: as above
[4] = system: U2OS; test: as above
[5] = system: Vero E6; test: as above
[6] = system: Caco-2; test: relative viability EC50 (midpoint between 100% and the lowest measured viability); higher = less toxic
[7] = system: Calu-3; test: as above
[8] = system: HepG2; test: as above
[9] = system: U2OS; test: as above
[10] = system: Vero E6; test: as above
[11] = system: Caco-2; test: drug sensitivity score (DSS) for viability; higher = more toxic; extreme values may be limits of the assay
[12] = system: Calu-3; test: as above
[13] = system: HepG2; test: as above
[14] = system: U2OS; test: as above
[15] = system: Vero E6; test: as above

CC(C)(C)C(=O)CN1C(=O)[C@H](NC(=O)Nc2cccc(C(=O)O)c2)CN(C2CCCCC2)c2ccccc21 [nastorazepide]
cell viability ([1]; 1 nM): 96.6% | cell viability ([1]; 10 nM): 95.4% | cell viability ([1]; 100 nM): 93.1% | cell viability ([1]; 1000 nM): 92.7% | cell viability ([1]; 10000 nM): 95.8% | cell viability ([2]; 1 nM): 96.7% | cell viability ([2]; 10 nM): 104% | cell viability ([2]; 100 nM): 113% | cell viability ([2]; 1000 nM): 98.8% | cell viability ([2]; 10000 nM): 118% | cell viability ([3]; 1 nM): 99.9% | cell viability ([3]; 10 nM): 106% | cell viability ([3]; 100 nM): 96.7% | cell viability ([3]; 1000 nM): 108% | cell viability ([3]; 10000 nM): 95.9% | cell viability ([4]; 1 nM): 100% | cell viability ([4]; 10 nM): 96.7% | cell viability ([4]; 100 nM): 103% | cell viability ([4]; 1000 nM): 96.5% | cell viability ([4]; 10000 nM): 100% | cell viability ([5]; 1 nM): 104% | cell viability ([5]; 10 nM): 105% | cell viability ([5]; 100 nM): 99.2% | cell viability ([5]; 1000 nM): 105% | cell viability ([5]; 10000 nM): 98.8% | relative viability EC50 [6]: > 10 µM | relative viability EC50 [7]: > 10 µM | relative viability EC50 [8]: > 10 µM | relative viability EC50 [9]: > 10 µM | relative viability EC50 [10]: > 10 µM | drug sensitivity score [11]: 0 | drug sensitivity score [12]: 0 | drug sensitivity score [13]: 0 | drug sensitivity score [14]: 0 | drug sensitivity score [15]: 0

COc1ccc2c(c1OC)C(=O)O[C@@H]2[C@H]1c2c(cc3c(c2OC)OCO3)CCN1C [noscapine]
cell viability ([1]; 1 nM): 115% | cell viability ([1]; 10 nM): 109% | cell viability ([1]; 100 nM): 98% | cell viability ([1]; 1000 nM): 110% | cell viability ([1]; 10000 nM): 105% | cell viability ([2]; 1 nM): 97.3% | cell viability ([2]; 10 nM): 103% | cell viability ([2]; 100 nM): 102% | cell viability ([2]; 1000 nM): 95.9% | cell viability ([2]; 10000 nM): 95.8% | cell viability ([3]; 1 nM): 105% | cell viability ([3]; 10 nM): 100% | cell viability ([3]; 100 nM): 86.2% | cell viability ([3]; 1000 nM): 100% | cell viability ([3]; 10000 nM): 104% | cell viability ([4]; 1 nM): 103% | cell viability ([4]; 10 nM): 98.7% | cell viability ([4]; 100 nM): 101% | cell viability ([4]; 1000 nM): 97.5% | cell viability ([4]; 10000 nM): 102% | cell viability ([5]; 1 nM): 98.4% | cell viability ([5]; 10 nM): 102% | cell viability ([5]; 100 nM): 96.9% | cell viability ([5]; 1000 nM): 104% | cell viability ([5]; 10000 nM): 104% | relative viability EC50 [6]: > 10 µM | relative viability EC50 [7]: > 10 µM | relative viability EC50 [8]: > 10 µM | relative viability EC50 [9]: > 10 µM | relative viability EC50 [10]: > 10 µM | drug sensitivity score [11]: 0 | drug sensitivity score [12]: 0 | drug sensitivity score [13]: 0 | drug sensitivity score [14]: 0 | drug sensitivity score [15]: 0

Cc1cc(C)c(S(=O)(=O)Nc2ccccc2C(F)(F)F)c(C)c1 [o-3M3FBS]
cell viability ([1]; 1 nM): 94.2% | cell viability ([1]; 10 nM): 99.4% | cell viability ([1]; 100 nM): 98.3% | cell viability ([1]; 1000 nM): 97.7% | cell viability ([1]; 10000 nM): 103% | cell viability ([2]; 1 nM): 98.9% | cell viability ([2]; 10 nM): 99.5% | cell viability ([2]; 100 nM): 89.4% | cell viability ([2]; 1000 nM): 100% | cell viability ([2]; 10000 nM): 93.7% | cell viability ([3]; 1 nM): 102% | cell viability ([3]; 10 nM): 109% | cell viability ([3]; 100 nM): 95.6% | cell viability ([3]; 1000 nM): 94.9% | cell viability ([3]; 10000 nM): 99.4% | cell viability ([4]; 1 nM): 96.8% | cell viability ([4]; 10 nM): 99.8% | cell viability ([4]; 100 nM): 97.8% | cell viability ([4]; 1000 nM): 95.6% | cell viability ([4]; 10000 nM): 96.5% | cell viability ([5]; 1 nM): 95.8% | cell viability ([5]; 10 nM): 98.4% | cell viability ([5]; 100 nM): 94.3% | cell viability ([5]; 1000 nM): 88.3% | cell viability ([5]; 10000 nM): 97.3% | relative viability EC50 [6]: > 10 µM | relative viability EC50 [7]: > 10 µM | relative viability EC50 [8]: > 10 µM | relative viability EC50 [9]: > 10 µM | relative viability EC50 [10]: > 10 µM | drug sensitivity score [11]: 0 | drug sensitivity score [12]: 0 | drug sensitivity score [13]: 0 | drug sensitivity score [14]: 0 | drug sensitivity score [15]: 0

CCCCCCCC/C=C\CCCCCCCC(N)=O [oleamide]
cell viability ([1]; 1 nM): 99.3% | cell viability ([1]; 10 nM): 92.4% | cell viability ([1]; 100 nM): 95.3% | cell viability ([1]; 1000 nM): 96.5% | cell viability ([1]; 10000 nM): 99.7% | cell viability ([2]; 1 nM): 107% | cell viability ([2]; 10 nM): 98.7% | cell viability ([2]; 100 nM): 93.9% | cell viability ([2]; 1000 nM): 104% | cell viability ([2]; 10000 nM): 89.7% | cell viability ([3]; 1 nM): 104% | cell viability ([3]; 10 nM): 101% | cell viability ([3]; 100 nM): 99.2% | cell viability ([3]; 1000 nM): 92.7% | cell viability ([3]; 10000 nM): 104% | cell viability ([4]; 1 nM): 98.8% | cell viability ([4]; 10 nM): 103% | cell viability ([4]; 100 nM): 97.1% | cell viability ([4]; 1000 nM): 100% | cell viability ([4]; 10000 nM): 91.3% | cell viability ([5]; 1 nM): 97.3% | cell viability ([5]; 10 nM): 99.3% | cell viability ([5]; 100 nM): 100% | cell viability ([5]; 1000 nM): 100% | cell viability ([5]; 10000 nM): 101% | relative viability EC50 [6]: > 10 µM | relative viability EC50 [7]: > 10 µM | relative viability EC50 [8]: > 10 µM | relative viability EC50 [9]: > 10 µM | relative viability EC50 [10]: > 10 µM | drug sensitivity score [11]: 0 | drug sensitivity score [12]: 0 | drug sensitivity score [13]: 0 | drug sensitivity score [14]: 0 | drug sensitivity score [15]: 0

CN(C)c1cc(CNCC(C)(C)C)c(O)c2c1C[C@H]1C[C@H]3[C@H](N(C)C)C(O)=C(C(N)=O)C(=O)[C@@]3(O)C(O)=C1C2=O [omadacycline]
cell viability ([1]; 1 nM): 107% | cell viability ([1]; 10 nM): 95.1% | cell viability ([1]; 100 nM): 100% | cell viability ([1]; 1000 nM): 97.4% | cell viability ([1]; 10000 nM): 96.4% | cell viability ([2]; 1 nM): 108% | cell viability ([2]; 10 nM): 91.4% | cell viability ([2]; 100 nM): 102% | cell viability ([2]; 1000 nM): 88.9% | cell viability ([2]; 10000 nM): 92.4% | cell viability ([3]; 1 nM): 101% | cell viability ([3]; 10 nM): 90.9% | cell viability ([3]; 100 nM): 96.9% | cell viability ([3]; 1000 nM): 105% | cell viability ([3]; 10000 nM): 87% | cell viability ([4]; 1 nM): 102% | cell viability ([4]; 10 nM): 103% | cell viability ([4]; 100 nM): 99.9% | cell viability ([4]; 1000 nM): 102% | cell viability ([4]; 10000 nM): 98.2% | cell viability ([5]; 1 nM): 96.3% | cell viability ([5]; 10 nM): 101% | cell viability ([5]; 100 nM): 97.1% | cell viability ([5]; 1000 nM): 98.8% | cell viability ([5]; 10000 nM): 97.3% | relative viability EC50 [6]: > 10 µM | relative viability EC50 [7]: > 10 µM | relative viability EC50 [8]: > 10 µM | relative viability EC50 [9]: > 10 µM | relative viability EC50 [10]: > 10 µM | drug sensitivity score [11]: 0 | drug sensitivity score [12]: 0.3 | drug sensitivity score [13]: 0 | drug sensitivity score [14]: 0 | drug sensitivity score [15]: 0

CCC(CC)O[C@@H]1C=C(C(=O)O)C[C@H](N)[C@H]1NC(C)=O [oseltamivir-carboxylate]
cell viability ([1]; 1 nM): 89.8% | cell viability ([1]; 10 nM): 96.8% | cell viability ([1]; 100 nM): 99.7% | cell viability ([1]; 1000 nM): 99.5% | cell viability ([1]; 10000 nM): 101% | cell viability ([2]; 1 nM): 98.9% | cell viability ([2]; 10 nM): 98.6% | cell viability ([2]; 100 nM): 98.6% | cell viability ([2]; 1000 nM): 98.2% | cell viability ([2]; 10000 nM): 103% | cell viability ([3]; 1 nM): 104% | cell viability ([3]; 10 nM): 99.3% | cell viability ([3]; 100 nM): 108% | cell viability ([3]; 1000 nM): 95.5% | cell viability ([3]; 10000 nM): 115% | cell viability ([4]; 1 nM): 100% | cell viability ([4]; 10 nM): 99.8% | cell viability ([4]; 100 nM): 97.2% | cell viability ([4]; 1000 nM): 102% | cell viability ([4]; 10000 nM): 105% | cell viability ([5]; 1 nM): 98.4% | cell viability ([5]; 10 nM): 99.7% | cell viability ([5]; 100 nM): 98.1% | cell viability ([5]; 1000 nM): 95.9% | cell viability ([5]; 10000 nM): 104% | relative viability EC50 [6]: > 10 µM | relative viability EC50 [7]: > 10 µM | relative viability EC50 [8]: > 10 µM | relative viability EC50 [9]: > 10 µM | relative viability EC50 [10]: > 10 µM | drug sensitivity score [11]: 0 | drug sensitivity score [12]: 0 | drug sensitivity score [13]: 0 | drug sensitivity score [14]: 0 | drug sensitivity score [15]: 0

O=C1CCCCCCCCCCCCCCO1 [oxacyclohexadecan-2-one]
cell viability ([1]; 1 nM): 103% | cell viability ([1]; 10 nM): 95.1% | cell viability ([1]; 100 nM): 90% | cell viability ([1]; 1000 nM): 92.8% | cell viability ([1]; 10000 nM): 102% | cell viability ([2]; 1 nM): 93.2% | cell viability ([2]; 10 nM): 99.1% | cell viability ([2]; 100 nM): 91.9% | cell viability ([2]; 1000 nM): 90% | cell viability ([2]; 10000 nM): 90.7% | cell viability ([3]; 1 nM): 109% | cell viability ([3]; 10 nM): 93.8% | cell viability ([3]; 100 nM): 105% | cell viability ([3]; 1000 nM): 86% | cell viability ([3]; 10000 nM): 97.7% | cell viability ([4]; 1 nM): 101% | cell viability ([4]; 10 nM): 98.9% | cell viability ([4]; 100 nM): 95.8% | cell viability ([4]; 1000 nM): 101% | cell viability ([4]; 10000 nM): 98% | cell viability ([5]; 1 nM): 102% | cell viability ([5]; 10 nM): 106% | cell viability ([5]; 100 nM): 102% | cell viability ([5]; 1000 nM): 88.8% | cell viability ([5]; 10000 nM): 102% | relative viability EC50 [6]: > 10 µM | relative viability EC50 [7]: > 10 µM | relative viability EC50 [8]: > 10 µM | relative viability EC50 [9]: > 10 µM | relative viability EC50 [10]: > 10 µM | drug sensitivity score [11]: 0 | drug sensitivity score [12]: 0 | drug sensitivity score [13]: 0 | drug sensitivity score [14]: 0 | drug sensitivity score [15]: 0
